Assay [1] addresses Leucine-rich repeat serine/threonine-protein kinase 2 (Homo sapiens, UniProt Q5S007, G2019S). Put plainly: Inhibition of LRRK2 G2019S mutant (unknown origin) using biotinylated ezrin/radaxin/meosin peptide as substrate measured after 1 hr.
For assay [2], the target named is Leucine-rich repeat serine/threonine-protein kinase 2 (Homo sapiens, UniProt Q5S007). Put plainly: Inhibition of full length wild-type LRRK2 (unknown origin) using biotinylated ezrin/radaxin/meosin peptide as substrate measured after 1 hr.
Leucine-rich repeat serine/threonine-protein kinase 2 (Homo sapiens, UniProt Q5S007), sequence (Q5S007 whole entry): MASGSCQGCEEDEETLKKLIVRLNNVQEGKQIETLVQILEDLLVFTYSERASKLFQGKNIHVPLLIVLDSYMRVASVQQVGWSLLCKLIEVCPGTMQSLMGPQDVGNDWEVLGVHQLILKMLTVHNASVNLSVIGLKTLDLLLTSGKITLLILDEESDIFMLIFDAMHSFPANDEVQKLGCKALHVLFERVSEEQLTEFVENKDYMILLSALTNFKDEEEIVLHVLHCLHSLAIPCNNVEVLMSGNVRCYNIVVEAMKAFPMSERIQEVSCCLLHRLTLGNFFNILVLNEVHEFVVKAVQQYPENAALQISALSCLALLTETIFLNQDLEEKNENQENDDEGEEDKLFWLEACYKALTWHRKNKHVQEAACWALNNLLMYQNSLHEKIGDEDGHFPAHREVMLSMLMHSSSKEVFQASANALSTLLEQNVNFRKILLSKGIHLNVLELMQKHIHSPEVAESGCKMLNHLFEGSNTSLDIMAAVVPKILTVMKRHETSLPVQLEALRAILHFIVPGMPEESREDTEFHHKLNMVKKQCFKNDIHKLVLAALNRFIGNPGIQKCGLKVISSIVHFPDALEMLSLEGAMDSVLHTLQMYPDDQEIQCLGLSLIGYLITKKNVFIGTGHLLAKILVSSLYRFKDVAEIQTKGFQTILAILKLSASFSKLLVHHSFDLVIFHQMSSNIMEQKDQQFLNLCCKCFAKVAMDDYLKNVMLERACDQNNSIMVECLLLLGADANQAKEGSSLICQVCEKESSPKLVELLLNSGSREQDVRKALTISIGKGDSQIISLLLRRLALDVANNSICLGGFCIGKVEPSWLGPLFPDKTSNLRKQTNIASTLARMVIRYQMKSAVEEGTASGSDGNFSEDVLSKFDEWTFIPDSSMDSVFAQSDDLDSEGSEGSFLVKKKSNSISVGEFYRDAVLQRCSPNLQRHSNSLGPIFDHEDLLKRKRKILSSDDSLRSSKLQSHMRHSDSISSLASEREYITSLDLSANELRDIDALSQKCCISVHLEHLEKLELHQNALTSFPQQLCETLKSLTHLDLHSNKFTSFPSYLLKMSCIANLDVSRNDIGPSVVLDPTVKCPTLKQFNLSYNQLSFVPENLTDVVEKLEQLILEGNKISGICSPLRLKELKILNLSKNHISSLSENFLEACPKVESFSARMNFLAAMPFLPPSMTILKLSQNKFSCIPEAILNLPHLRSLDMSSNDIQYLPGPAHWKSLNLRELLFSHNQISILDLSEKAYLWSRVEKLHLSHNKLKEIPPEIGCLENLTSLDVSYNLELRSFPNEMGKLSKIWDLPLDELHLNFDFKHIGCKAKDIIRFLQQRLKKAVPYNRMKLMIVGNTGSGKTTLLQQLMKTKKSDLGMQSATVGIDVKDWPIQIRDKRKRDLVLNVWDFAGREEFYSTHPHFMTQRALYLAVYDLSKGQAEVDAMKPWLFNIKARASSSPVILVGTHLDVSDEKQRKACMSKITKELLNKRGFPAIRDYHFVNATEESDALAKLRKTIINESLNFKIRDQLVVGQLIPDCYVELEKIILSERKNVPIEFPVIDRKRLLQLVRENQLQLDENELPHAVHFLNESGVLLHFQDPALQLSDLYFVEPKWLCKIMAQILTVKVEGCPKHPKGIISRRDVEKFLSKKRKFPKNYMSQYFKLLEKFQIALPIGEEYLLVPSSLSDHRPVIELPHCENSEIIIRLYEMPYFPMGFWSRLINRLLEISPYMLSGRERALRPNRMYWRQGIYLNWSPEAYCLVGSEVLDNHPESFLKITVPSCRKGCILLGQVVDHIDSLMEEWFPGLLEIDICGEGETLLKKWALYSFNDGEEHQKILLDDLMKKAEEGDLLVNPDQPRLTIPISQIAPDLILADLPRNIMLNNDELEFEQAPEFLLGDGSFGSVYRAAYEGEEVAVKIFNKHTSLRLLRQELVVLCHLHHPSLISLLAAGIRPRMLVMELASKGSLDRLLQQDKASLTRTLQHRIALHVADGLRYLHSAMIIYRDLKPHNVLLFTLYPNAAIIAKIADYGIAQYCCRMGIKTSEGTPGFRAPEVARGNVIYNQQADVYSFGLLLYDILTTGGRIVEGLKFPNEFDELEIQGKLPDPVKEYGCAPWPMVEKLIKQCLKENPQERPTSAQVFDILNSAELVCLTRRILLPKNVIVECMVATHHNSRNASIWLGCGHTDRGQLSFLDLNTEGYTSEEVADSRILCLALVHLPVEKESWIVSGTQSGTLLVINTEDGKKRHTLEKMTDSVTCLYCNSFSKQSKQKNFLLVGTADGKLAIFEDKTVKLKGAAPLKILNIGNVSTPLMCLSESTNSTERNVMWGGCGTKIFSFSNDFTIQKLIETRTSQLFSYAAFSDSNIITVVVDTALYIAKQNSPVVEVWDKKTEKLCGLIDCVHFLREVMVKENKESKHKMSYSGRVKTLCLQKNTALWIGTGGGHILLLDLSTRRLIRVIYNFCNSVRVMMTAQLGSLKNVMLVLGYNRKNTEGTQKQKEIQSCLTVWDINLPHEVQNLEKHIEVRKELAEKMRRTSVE

In general, IC50 refers to the point on the concentration scale where inhibition reaches its midpoint. Read a low IC50 as greater potency. One may read the Ki as a measure of affinity in units of concentration, obtained from inhibition or displacement. Read a low Ki as a stronger hold on the target.

Leucine-rich repeat serine/threonine-protein kinase 2 (Homo sapiens, UniProt Q5S007, G2019S), sequence (Q5S007 whole entry G2019S): as the sequence (Q5S007 whole entry) above, with G2019S counted along it

Take `NC(=O)c1ccc(Nc2nc(N3CCOCC3)c3ccccc3n2)cc1`: the IC50 turned out to be 633 nM in assay [1] and 825 nM in assay [2].
`O=c1[nH]ccc2nc(N3CCC(O)CC3)nc(Nc3cccc(C(F)(F)F)c3)c12` came in with a Ki in assay [2] of 54 nM. This counts as double-digit nanomolar.
As for `CN(C)S(=O)(=O)c1ccc(C(=O)Nc2nc3ccccc3n2-c2ccccc2)o1`, the IC50 in assay [1] and in assay [2] was more than 10000 nM in each case.
Turning to `Clc1c[nH]c2ncc(-c3cncc(N4CCOCC4)n3)cc12`, in assay [1], the IC50 was not above 500 nM.
As to `CCn1c(NC(=O)c2ccnc(-n3ccnc3)c2)nc2ccccc21`, the IC50 turned out to be 274 nM in assay [1] and 343 nM in assay [2].
`Cc1ccccc1Nc1nc2ccc(-c3cc(C)c(O)c(C)c3)cn2n1` displayed an IC50 in assay [2] of 10 nM.
Regarding `c1cc(-c2n[nH]c3ccnc(OC4CCOCC4)c23)cc(N2CCCC2)n1`, the IC50 in assay [2] is 3 nM. Compared with the last molecule, the IC50 is about 3.3-fold lower.
On to `COc1cc(N2CCOCC2)ccc1Nc1ncc(F)c(Nc2ccccc2NS(C)(=O)=O)n1`, for which the figures for the IC50 in assay [1] and in assay [2] were 1.9 nM and 1.3 nM, respectively.
Consider `C[C@@H](Nc1c(C(N)=O)nnc2cc(-c3ccncc3)ccc12)C1CC1`, for which, in assay [2], the half-inhibitory concentration (IC50) was not above 6 nM.
`CCOc1ccc(Nc2nc(N3CCOCC3)c3nc[nH]c3n2)cc1`: the IC50 in assay [1] stood at 355 nM; in assay [2], 351 nM.
Take `COc1cccc(Nc2nc(NCCO)c3nc[nH]c3n2)c1`: the IC50 in assay [1] is 48 nM; in assay [2], 84 nM.

(Values after ChEMBL document CHEMBL4017473, “Discovery of LRRK2 inhibitors by using an ensemble of virtual screening methods” (Bioorg Med Chem Lett, 2017).)
